From patent US6777412B2 (priority 1990, dated 2004)
Where two headings read alike, the source gives them in different places. Marks after values point to notes of the source that are not given here.

Columns and labels:
Assay type in all cases: in vivo
[1] = tested on: Plasmopara viticola; experiment: Foliar fungal disease test on plants: Plasmopara viticola (Pv)
How it was run: (§1)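 Potted plants treated by foliar spray to maximum retention (100 ppm a.i. unless stated) plus root drench (~40 ppm a.i. in dry soil), with 0.05% Tween 20 on cereals, one or two days before spore-suspension inoculation.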

[2] = tested on: Venturia inaequalis; experiment: Foliar fungal disease test on plants: Venturia inaequalis (Vi)
How it was run: as §1

[3] = tested on: Erysiphe graminis hordei; experiment: Foliar fungal disease test on plants: Erysiphe graminis hordei (Egh)
[4] = tested on: Puccinia recondita; experiment: Foliar fungal disease test on plants: Puccinia recondita (Pr)
How it was run: as §1

[5] = tested on: Cercospora arachidicola; experiment: Foliar fungal disease test on plants: Cercospora arachidicola (Ca)
Method: (§2) The compounds were tested against a variety of foliar fungal diseases of plants. The technique employed was as follows.
(§3) The plants were grown in John Innes Potting Compost (No.1 or 2) in 4 cm diameter minipots. The test compounds were formulated either by bead milling with aqueous Dispersol T or as a solution in acetone or acetone/ethanol which was diluted to the required concentration immediately before use. For the foliage diseases, the formulations (100 ppm active ingredient except where otherwise indicated) were sprayed onto the foliage and applied to the roots of the plants in the soil. The sprays were applied to maximum retention and the root drenches to a final concentration equivalent to approximately 40 ppm a.i. in dry soil. Tween 20, to give a final concentration of 0.05%, was added when the sprays were applied to cereals.
(§4) For most of the tests the compound was applied to the soil (roots) and to the foliage (by spraying) one or two days before the plant was inoculated with the disease. An exception was the test on Erysiphe graminis in which the plants were inoculated 24 hours before treatment. Foliar pathogens were applied by spray as spore suspensions onto the leaves of test plants. After inoculation, the plants were put into an appropriate environment to allow infection to proceed and then incubated until the disease was ready for assessment. The period between inoculation and assessment varied from four to fourteen days according to the disease and environment.
(§5) The disease control vas recorded by the following grading:
(§6) 3=trace-5% of disease on untreated plants
(§7) 2=6-25% of disease on untreated plants
(§8) 1=26-59% of disease on untreated plants
(§9) 0=60-100% of disease on untreated plants
Ca Cercospora arachidicola

[6] = tested on: Septoria nodorum; experiment: Foliar fungal disease test on plants: Septoria nodorum (Sn)
How it was run: as §1

[7] = tested on: Phytophthora infestans lycopersici
[8] = tested on: Thanatephorus cucumeris; experiment: Foliar fungal disease test on plants: Thanatephorus cucumeris (Tc)
Method: as §2, §3, §4, §5, §6, §7, §8, §9
Tc Thanatephorus cucumeris

[9] = tested on: Erysiphe graminis tritici; experiment: Foliar fungal disease test on plants: Erysiphe graminis tritici (Egt)
How it was run: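 Formulations (100 ppm a.i. unless stated, 0.05% Tween 20 on cereals) sprayed to foliage plus root drench (~40 ppm a.i. in dry soil), 24 h after spore-suspension spray inoculation.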

[10] = tested on: Pyricularia oryzae
[11] = 100 ppm active ingredient foliar spray plus root drench (approx. 40 ppm a.i. in dry soil), one or two days before inoculation
[12] = 100 ppm active ingredient foliar spray plus root drench (approx. 40 ppm a.i. in dry soil), plants inoculated 24 hours before treatment

Row | SMILES | disease control grading, Pv (Plasmopara viticola) [1, 11] | disease control grading, Vi (Venturia inaegualis) [2, 11] | disease control grading, Egh (Erysiphe graminis hordei) [3, 12] | disease control grading, Pr (Puccinia recondita) [4, 11] | disease control grading, Ca (Cercospora arachidicola) [5, 11] | disease control grading, Sn (Septoria nodorum) [6, 11] | disease control grading, Pil (Phytophthora infestans lycopersici) [7, 11] | disease control grading, Tc (Thanatephorus cucumeris) [8, 11] | disease control grading, Egt (Erysiphe graminis tritici) [9, 12] | disease control grading, Po (Pyricularia oryzae) [10, 11] | disease control grading, Pil (Phytophthora infestans lycopersici) ([7]; 10 ppm foliar application only) | disease control grading, Pv (Plasmopara viticola) ([1]; 10 ppm foliar application only) | disease control grading, Vi (Venturia inaegualis) ([2]; 10 ppm foliar application only) | disease control grading, Egh (Erysiphe graminis hordei) ([3]; 10 ppm foliar application only) | disease control grading, Pr (Puccinia recondita) ([4]; 10 ppm foliar application only) | disease control grading, Po (Pyricularia oryzae) ([10]; 10 ppm foliar application only) | disease control grading, Ca (Cercospora arachidicola) ([5]; 10 ppm foliar application only) | disease control grading, Sn (Septoria nodorum) ([6]; 10 ppm foliar application only) | disease control grading, Tc (Thanatephorus cucumeris) ([8]; 10 ppm foliar application only) | disease control grading, Egt (Erysiphe graminis tritici) ([9]; 10 ppm foliar application only)
1 | CO/C=C(/C(=O)OC)c1ccccc1Oc1cc(-c2ccccc2)ncn1 [180 of Table I] | 4 (4=no disease) | 4 (4=no disease) | 4 (4=no disease) | 4 (4=no disease) | 4 (4=no disease) | – | – | – | – | – | – | – | – | – | – | – | – | – | – | –
2 | CO/C=C(/C(=O)OC)c1ccccc1Oc1cc(OCc2ccco2)ncn1 [320 of Table I] | 4 (4=no disease) | 4 (4=no disease) | – | 4 (4=no disease) | – | 4 (4=no disease) | 4 (4=no disease) | 4 (4=no disease) | 4 (4=no disease) | 3 (3=trace-5% of disease on untreated plants) | – | – | – | – | – | – | – | – | – | –
3 | COC=C(C(=O)OC)c1ccccc1Oc1nccc(-c2ccccc2)n1 [180 of Table III] | – | – | – | – | – | – | – | – | – | – | 4^a (4=no disease) | 4^a (4=no disease) | 4^a (4=no disease) | 4^a (4=no disease) | 4^a (4=no disease) | 3^a (3=trace-5% of disease on untreated plants) | 3^a (3=trace-5% of disease on untreated plants) | – | – | –
4 | CO/C=C(/C(=O)OC)c1ccccc1Oc1cc(OCc2ccccc2)ncn1 [23 of Table I] | 4 (4=no disease) | 4 (4=no disease) | 4 (4=no disease) | 4 (4=no disease) | 4 (4=no disease) | – | – | – | – | 4 (4=no disease) | – | – | – | – | – | – | – | – | – | –
5 | CO/C=C(/C(=O)OC)c1ccccc1Oc1cc(O/N=C(\C)c2ccc[nH]2)ncn1 [407 of Table I] | – | – | – | – | – | – | – | – | – | – | 0^a (0=60-100% of disease on untreated plants) | 4^a (4=no disease) | 3^a (3=trace-5% of disease on untreated plants) | – | 0^a (0=60-100% of disease on untreated plants) | 1^a (1=26-59% of disease on untreated plants) | – | 0^a (0=60-100% of disease on untreated plants) | 0^a (0=60-100% of disease on untreated plants) | 1^a (1=26-59% of disease on untreated plants)
6 | CO/C=C(/C(=O)OC)c1ccccc1Oc1cc(S(=O)(=O)c2ccccn2)ncn1 [356 of Table I] | 4 (4=no disease) | 4 (4=no disease) | 0 (0=60-100% of disease on untreated plants) | 1 (1=26-59% of disease on untreated plants) | 3 (3=trace-5% of disease on untreated plants) | – | 0 (0=60-100% of disease on untreated plants) | – | – | – | – | – | – | – | – | – | – | – | – | –
7 | CO/C=C(/C(=O)OC)c1ccccc1Oc1cc(N(C)c2ccccc2C#N)ncn1 [354 of Table I] | 4 (4=no disease) | 4 (4=no disease) | 4 (4=no disease) | 4 (4=no disease) | 4 (4=no disease) | – | 0 (0=60-100% of disease on untreated plants) | – | – | 3 (3=trace-5% of disease on untreated plants) | – | – | – | – | – | – | – | – | – | –
8 | CO/C=C(/C(=O)OC)c1ccccc1Oc1cc(OCc2cccs2)ncn1 [394 of Table I] | 4 (4=no disease) | 4 (4=no disease) | – | 4 (4=no disease) | – | 4 (4=no disease) | 4 (4=no disease) | 4 (4=no disease) | 4 (4=no disease) | 3 (3=trace-5% of disease on untreated plants) | – | – | – | – | – | – | – | – | – | –
9 | CO/C=C(/C(=O)OC)c1ccccc1Oc1cc(O/N=C(/N)c2cccc(C(F)(F)F)c2)ncn1 [406 of Table I] | 4 (4=no disease) | 1 (1=26-59% of disease on untreated plants) | – | 0 (0=60-100% of disease on untreated plants) | – | 0 (0=60-100% of disease on untreated plants) | 0 (0=60-100% of disease on untreated plants) | 0 (0=60-100% of disease on untreated plants) | 1 (1=26-59% of disease on untreated plants) | 0 (0=60-100% of disease on untreated plants) | – | – | – | – | – | – | – | – | – | –
10 | CO/C=C(/C(=O)OC)c1ccccc1Oc1cc(OCCc2ccc(C#N)cc2)ncn1 [359 of Table I] | 4 (4=no disease) | – | 4 (4=no disease) | 4 (4=no disease) | 4 (4=no disease) | – | 4 (4=no disease) | – | – | – | – | – | – | – | – | – | – | – | – | –
11 | CO/C=C(/C(=O)OC)c1ccccc1Oc1cc(OCc2c(Cl)cccc2C(F)(F)F)ncn1 [383 of Table I] | – | – | – | – | – | – | – | – | – | – | 0^a (0=60-100% of disease on untreated plants) | 4^a (4=no disease) | 3^a (3=trace-5% of disease on untreated plants) | 0^a (0=60-100% of disease on untreated plants) | 4^a (4=no disease) | 0^a (0=60-100% of disease on untreated plants) | – | 4^a (4=no disease) | 4^a (4=no disease) | –
12 | CO/C=C(/C(=O)OC)c1ccccc1Oc1cc(N(C=O)c2ccccc2O)ncn1 [392 of Table I] | – | – | – | – | – | – | – | – | – | – | 0^a (0=60-100% of disease on untreated plants) | 0^a (0=60-100% of disease on untreated plants) | 0^a (0=60-100% of disease on untreated plants) | 0^a (0=60-100% of disease on untreated plants) | 0^a (0=60-100% of disease on untreated plants) | 0^a (0=60-100% of disease on untreated plants) | – | 1^a (1=26-59% of disease on untreated plants) | 0^a (0=60-100% of disease on untreated plants) | –
